The results in this text go back to patent US20240101531A1, “PYRIDINAMINE DERIVATIVES AND THEIR USE AS POTASSIUM CHANNEL MODULATORS” (Xenon Pharmaceuticals Inc., priority 2022, published 2024).

Counter-ions that a name gives are not always drawn.

The assay addresses human KV7.2/KV7.3 (Homo sapiens (Human), UniProt O43525+O43526). In words: Potassium flux assay (IPG-2 AM dye). The conditions noted are these: TREX HEK 293 or HEK 293 cells expressing human KV7.2/KV7.3; arithmetic mean values. Type of assay: cell-based. The procedure, abridged:
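EC50 from 16 concentrations (2-fold dilutions, top 30 μM), scaled between DMSO baseline and a known KV7.x modulator maximum. Signal is IPG-2 AM fluorescence (ex 530/em 558 nm) after 10 mM KCl challenge buffer addition, following 20 min room-temperature compound exposure of HEK 293 or TREX HEK 293 cells stably expressing human KV7.2/KV7.3.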
As usually defined, the EC50 is the concentration needed to bring the measured effect to its halfway point. With `Cc1ncc(Nc2nccc3cc(N=S(C)(=O)C4CC4)ccc23)cn1` (stereo not drawn) [Example 278, cyclopropyl(methyl)((1-((2-methylpyrimidin-5-yl)amino)isoquinolin-6-yl)imino)-λ^6-sulfanone], the EC50 lay within 1 to 10 µM.

As to `Clc1ccc(Nc2nccc3cc(N4CCCC4)ccc23)cn1` [Example 421, N-(6-chloropyridin-3-yl)-6-(pyrrolidin-1-yl)isoquinolin-1-amine], the EC50 fell in the range of 1 to 10 µM.

For `Clc1ccc(Nc2nccc3cc(OCCCn4ccnc4)ccc23)cn1` [Example 185, 6-(3-(1H-imidazol-1-yl)propoxy)-N-(6-chloropyridin-3-yl)isoquinolin-1-amine], the EC50 was in the range of 1 to 10 µM.

Consider `Clc1ccc(Nc2nccc3cc(OCc4cncnc4)ccc23)cn1` [Example 182, N-(6-chloropyridin-3-yl)-6-(pyrimidin-5-ylmethoxy)isoquinolin-1-amine], for which the EC50 was under 1 µM.

Regarding `N#CC1(COc2ccc3c(Nc4ccc(Cl)nc4)nccc3c2)CCC1` [Example 77, 1-(((1-((6-chloropyridin-3-yl)amino)isoquinolin-6-yl)oxy)methyl)cyclobutane-1-carbonitrile], the EC50 is under 1 µM.

For `Cn1cnc(COc2ccc3c(Nc4ccc(Cl)nc4)nccc3c2)n1` [Example 307, N-(6-chloropyridin-3-yl)-6-((1-methyl-1H-1,2,4-triazol-3-yl)methoxy)isoquinolin-1-amine], the EC50 is 1 to 10 µM.

Turning to `N#CC1(COc2ccc3c(Nc4ccc(Cl)nc4)nccc3c2)CCOC1` (stereo in doubt) [Example 125, (R)-3-(((1-((6-chloropyridin-3-yl)amino)isoquinolin-6-yl)oxy)methyl)tetrahydrofuran-3-carbonitrile], the EC50 is under 1 µM.

On to `N#CCn1cc(COc2ccc3c(Nc4ccc(Cl)nc4)nccc3c2)cn1` [Example 400, 2-(4-(((1-((6-chloropyridin-3-yl)amino)isoquinolin-6-yl)oxy)methyl)-1H-pyrazol-1-yl)acetonitrile], for which the EC50 is under 1 µM.

Turning to `Cn1cc(OCc2ccc3c(Nc4ccc(Cl)nc4)nccc3c2)cn1` [Example 249, N-(6-chloropyridin-3-yl)-6-(((1-methyl-1H-pyrazol-4-yl)oxy)methyl)isoquinolin-1-amine], the EC50 is 1 to 10 µM.

On to `Clc1ccc(Nc2nccc3cc(OC4CCN(C5COC5)CC4)ccc23)cn1` [Example 313, N-(6-chloropyridin-3-yl)-6-((1-(oxetan-3-yl)piperidin-4-yl)oxy)isoquinolin-1-amine], for which the EC50 lay in the range of 1 to 10 µM.

Turning to `C[C@]1(O)CC[C@H](Oc2ccc3c(Nc4ccc(Cl)nc4)nccc3c2)CC1` [Example 264, trans-4-((1-((6-chloropyridin-3-yl)amino)isoquinolin-6-yl)oxy)-1-methylcyclohexan-1-ol], the EC50 fell in the range of 1 to 10 µM.

Regarding `CN(c1cnc(Cl)nc1)c1nccc2cc(OCC3(F)CC3)ccc12` [Example 144, N-(2-chloropyrimidin-5-yl)-6-((1-fluorocyclopropyl)methoxy)-N-methylisoquinolin-1-amine], the EC50 was at least 30 µM.

Consider `Cn1cc(COc2ccc3c(Nc4ccc(Cl)nc4)nccc3c2)c(Cl)n1` [Example 292, 6-((3-chloro-1-methyl-1H-pyrazol-4-yl)methoxy)-N-(6-chloropyridin-3-yl)isoquinolin-1-amine], for which the EC50 is under 1 µM.

`Clc1ccc(Nc2nccc3cc(OCc4ccno4)ccc23)cn1` [Example 157, N-(6-chloropyridin-3-yl)-6-(isoxazol-5-ylmethoxy)isoquinolin-1-amine]: the EC50 was under 1 µM.

As to `FC(F)Oc1ccc2c(Nc3ccc(Cl)nc3)nccc2c1` [Example 7, N-(6-chloropyridin-3-yl)-6-(difluoromethoxy)isoquinolin-1-amine], the EC50 lay within 1 to 10 µM.

As for `Cc1ccc2c(Nc3ccc(Cl)nc3)nccc2c1` [Example 20, N-(6-chloropyridin-3-yl)-6-methylisoquinolin-1-amine formate], the EC50 is 1 to 10 µM.

`FC1(F)CN[C@@H](COc2ccc3c(Nc4ccc(Cl)nc4)nccc3c2)C1` [Example 227, (R)—N-(6-chloropyridin-3-yl)-6-((4,4-difluoropyrrolidin-2-yl)methoxy)isoquinolin-1-amine trifluoroacetate]: the EC50 is 1 to 10 µM.

In the case of `O=C(Nc1ccc2c(Nc3ccc(Cl)nc3)nccc2c1)C1(CO)CC1` [Example 401, N-(1-((6-chloropyridin-3-yl)amino)isoquinolin-6-yl)-1-(hydroxymethyl)cyclopropane-1-carboxamide], the EC50 was at least 30 µM.

On to `Cn1cc(CCOc2ccc3c(Nc4ccc(Cl)nc4)nccc3c2)cn1` [Example 99, N-(6-chloropyridin-3-yl)-6-(2-(1-methyl-1H-pyrazol-4-yl)ethoxy)isoquinolin-1-amine], for which the EC50 was 1 to 10 µM.

As for `CC(C)Oc1ccc2c(Nc3ccc(Cl)nc3)nccc2c1` [Example 1, N-(6-chloropyridin-3-yl)-6-isopropoxyisoquinolin-1-amine], the EC50 fell in the range of 1 to 10 µM.

For the compound `CC(=O)N1CCC(COc2ccc3c(Nc4ccc(Cl)nc4)nccc3c2)CC1` [Example 318, 1-(4-(((1-((6-chloropyridin-3-yl)amino)isoquinolin-6-yl)oxy)methyl)piperidin-1-yl)ethan-1-one], the EC50 was under 1 µM.

As for `Oc1ccc2c(Nc3cnc(Cl)nc3)nccc2c1` [Example 243, 1-((2-chloropyrimidin-5-yl)amino)isoquinolin-6-ol], the EC50 fell in the range of 10 to 30 µM.

For `Cc1cn(C)nc1COc1ccc2c(Nc3ccc(Cl)nc3)nccc2c1` [Example 204, N-(6-chloropyridin-3-yl)-6-((1,4-dimethyl-1H-pyrazol-3-yl)methoxy)isoquinolin-1-amine], the EC50 was in the range of 1 to 10 µM.

For the compound `Fc1c(OCC2CC2)ccc2c(Nc3ccc(Cl)nc3)nccc12` [Example 229, N-(6-chloropyridin-3-yl)-6-(cyclopropylmethoxy)-5-fluoroisoquinolin-1-amine], the EC50 was 1 to 10 µM.

`Clc1ncc(Nc2nccc3cc(OC[C@@H]4COCCO4)ccc23)cn1` [Example 383, (S)-6-((1,4-dioxan-2-yl)methoxy)-N-(2-chloropyrimidin-5-yl)isoquinolin-1-amine]: the EC50 is under 1 µM.

As to `FC1(F)CC1COc1ccc2c(Nc3ccc(Cl)nc3)nccc2c1` (stereo not drawn) [Example 404, N-(6-chloropyridin-3-yl)-6-((2,2-difluorocyclopropyl)methoxy)isoquinolin-1-amine], the EC50 was under 1 µM.

With `Clc1ccc(Nc2nccc3cc(OCCN4CC5(CCC5)C4)ccc23)cn1` [Example 71, 6-(2-(2-azaspiro[3.3]heptan-2-yl)ethoxy)-N-(6-chloropyridin-3-yl)isoquinolin-1-amine], the EC50 is 10 to 30 µM.

Consider `Cc1ncc(Nc2nccc3cc(OCc4cn[nH]c4)ccc23)cn1` [Example 395, 6-((1H-pyrazol-4-yl)methoxy)-N-(2-methylpyrimidin-5-yl)isoquinolin-1-amine], for which the EC50 lay within 1 to 10 µM.

As for `Clc1ccc(Nc2nccc3cc(CNc4cn[nH]c4)ccc23)cn1` [Example 248, 6-(((1H-pyrazol-4-yl)amino)methyl)-N-(6-chloropyridin-3-yl)isoquinolin-1-amine], the EC50 lay within 1 to 10 µM.

As for `Clc1ccc(Nc2nccc3cc(OC[C@H]4CCN(Cc5ccccc5)C4)ccc23)cn1` [Example 284, (S)-6-((1-benzylpyrrolidin-3-yl)methoxy)-N-(6-chloropyridin-3-yl)isoquinolin-1-amine], the EC50 was 1 to 10 µM.

Take `Cn1ncc(COc2ccc3c(Nc4ccc(Cl)nc4)nccc3c2)c1Cl` [Example 291, 6-((5-chloro-1-methyl-1H-pyrazol-4-yl)methoxy)-N-(6-chloropyridin-3-yl)isoquinolin-1-amine]: the EC50 was in the range of 1 to 10 µM.

On to `Cc1ncc(Nc2nccc3cc(OCC4(F)COC4)ccc23)cn1` [Example 57, 6-((3-fluorooxetan-3-yl)methoxy)-N-(2-methylpyrimidin-5-yl)isoquinolin-1-amine], for which the EC50 is 1 to 10 µM.

For `CC(Oc1ccc2c(Nc3ccc(Cl)nc3)nccc2c1)C1CC1` (stereo not drawn) [Example 29, N-(6-chloropyridin-3-yl)-6-(1-cyclopropylethoxy)isoquinolin-1-amine], the EC50 lay in the range of 1 to 10 µM.

On to `Clc1ccc(Nc2nccc3cc(OC4CCCOC4)ccc23)cn1` (stereo not drawn) [Example 216, N-(6-chloropyridin-3-yl)-6-((tetrahydro-2H-pyran-3-yl)oxy)isoquinolin-1-amine], for which the EC50 is under 1 µM.

Turning to `C[Si](C)(C)CCOCN(c1ccc(Cl)nc1)c1nccc2cc(F)ccc12` [Example 92, N-(6-chloropyridin-3-yl)-6-fluoro-N-((2-(trimethylsilyl)ethoxy)-methyl)isoquinolin-1-amine], the EC50 was in the range of 1 to 10 µM.

As to `CC(F)(F)C1(COc2ccc3c(Nc4cnc(Cl)nc4)nccc3c2)COC1` [Example 355, N-(2-chloropyrimidin-5-yl)-6-((3-(1,1-difluoroethyl)oxetan-3-yl)methoxy)isoquinolin-1-amine], the EC50 is under 1 µM.

Regarding `N#C[C@H]1C[C@](F)(COc2ccc3c(Nc4cnc(Cl)nc4)nccc3c2)C1` [Example 64, (1s,3s)-3-(((1-((2-chloropyrimidin-5-yl)amino)isoquinolin-6-yl)oxy)methyl)-3-fluorocyclobutane-1-carbonitrile], the EC50 is under 1 µM.

Regarding `CC(=O)N[C@H]1CC[C@@H](Oc2ccc3c(Nc4ccc(Cl)nc4)nccc3c2)CC1` [Example 316, N-(cis-4-((1-((6-chloropyridin-3-yl)amino)isoquinolin-6-yl)oxy)cyclohexyl)acetamide], the EC50 was under 1 µM.

`OCC1(COc2ccc3c(Nc4ccc(Cl)nc4)nccc3c2)CC1` [Example 238, (1-(((1-((6-chloropyridin-3-yl)amino)isoquinolin-6-yl)oxy)methyl)cyclopropyl)methanol]: the EC50 is under 1 µM.
